Laboratory results: EP4624457A1, “I[…] DERIVATIVES, I[…] NEURODEGENERATIVE DISEASES” (Centre National de la Recherche Scientifique, priority 2024, dated 2025)
Where “and” joins values, the source holds several entries; their conditions need not be identical. Identical values can stand only once.

System: A2780 ovarian carcinoma cells
Experiment: Phosphatidylserine exposure assay (FITC-Annexin V / propidium iodide, flow cytometry)
Assay type: cell-based
Procedure: • Figure 1 represents the chemical structure of ingrilimine according to compound (Illa) formula. • Figure 2 represents the cytotoxic activity of ingrilimine. A2780 ovarian and HT29 colorectal carcinoma cells were grown in RPMI 1640 supplemented with 10% fetal calf serum (FCS) and 1% glutamine. U87-MG glioblastoma cells were grown in Dulbecco minimal essential medium containing 4.5 g/L glucose, 10% FCS and 1% glutamine at 37 °C in a humidified atmosphere containing 5% CO2. For IC50 determination, the cells were seeded in 96-well plates (3 × 10^3 cells/well) containing 90 µL of growth medium. After 24 h of culture, the cells were treated with ingrilimine at 10 different final concentrations. Cell viability was determined by luminescence after 72 h incubation. (a) Effect of ingrilimine on A2780 ovarian carcinoma cells. (b) Effect of ingrilimine on U87-MG glioblastoma cells. (c) Effect of ingrilimine on U87-MG glioblastoma cells • Figure 3a-3f represent the mitochondrial dysfunction provoked by ingrilimine. […] Sector Q normal cells that accumulated the JC-1 dye (fluorescence emission 590 nm). […] (a) Non-treated cells incubated with the carrier (DMSO) for 24 h. (b) HCT116 cells incubated with 10 nN ingrilimine for 24 h. (c) HCT116 cells incubated with 250 nM ingrilimine for 24 h. (d) Non-treated cells incubated with the carrier (DMSO) for 48 h. (e) HCT116 cells incubated with 10 nN ingrilimine for 48 h. (f) HCT116 cells incubated with 250 nM ingrilimine for 48. Changes in fluorescence emission were recorded by flow cytometry using the JC-1 mithocondrial membrane potential-dependent fluorescent dye. NT = non-treated cells; IngX = ingrilimine. • Figure 4a-4f represents phosphatidylserine exposure provoked by ingrilimine. […] Quadrants D1 and D2 with dead or necrotic cells, quadrant D3 with normal cells and quadrant D4 with apoptotic cells following phosphatidylserine exposure. (a) Non-treated A2780 cells incubated with the carrier (DMSO) for 24h. (b) A2780 cells incubated with 10 nM ingrilimine for 24 h. (c) A2780 cells incubated with 250 nM ingrilimine for 24 h. (d) Non-treated A2780 cells incubated with the carrier (DMSO) for 48 h. (e) A2780 cells incubated with 10 nM ingrilimine for 48 h. (f) A2780 cells incubated with 250 nM ingrilimine for 48. […] exposure in A2780 cell was quantified by flow cytometry using FITC-Annexin V. Dead or necrotic cells were detected using the vital dye propridium iodide. NT = non-treated cells; IngX = ingrilimine. • Figure 5 represents the antagonistic activity of ingrilimine (named "IngX" in the figure) and portimine (named "Port A" in the figure) against nicotinic acetylcholine receptors recorded by two-electrodes voltage clamp electrophysiology on Xenopus laevis oocytes. Clamped Xenopus laevis oocytes having incorporated the muscle (α1)2βγδ nAChR subtype from Torpedo marmorata (filled squares), or expressing the neuronal α3β2 nAChR subtype from rat (filled triangles), or expressing the human neuronal α7 nAChR subtype (filled circles) were exposed to portimine (100 nM - 1 mM) for 45 seconds. […] A Xenopus laevis oocyte expressing the human α7 nAChR subtype was exposed to 100 µM acetylcholine triggering the immediate opening of the receptor's channel (black bold line) followed by the very-fast closure of the channel ([…]) that became insensitive to acetylcholine during the rest of the 5 seconds exposure (desensitization). When a Xenopus laevis oocyte expressing the human α7 nAChR subtype was exposed first to 10 nM ingrilimine for 45 seconds and then to a mixture (Mix) containing 10 nM ingrilimine and 100 µM acetylcholine, the receptor's channel was closed denoting a strong antagonistic activity of the tested toxin against the α7 nAChR subtype (dotted line). […]

C=CC1=C[C@@H]2C[C@@H](O)[C@@H](O)/C(C)=C/C/C(C)=C/CCC3=NCCC[C@]32CC1 [Ingrilimine, ingrilimine]
Annexin V+/IP (10 nM, 24 h): 1.1% | Annexin V+/IP (10 nM, 48 h): 0.8% | Annexin V+/IP (50 nM, 24 h): 3.4% | Annexin V+/IP (50 nM, 48 h): 10% | Annexin V+/IP (100 nM, 24 h): 9.8% | Annexin V+/IP (100 nM, 48 h): 20.4% | Annexin V+/IP (250 nM, 24 h): 13.1% | Annexin V+/IP (250 nM, 24 h, listed as ingrilimine): -13% | percentage of propidium iodide positive and annexin V positive (250 nM, 24 h, quadrant D2, late stage apoptotic, dead or necrotic cells): 3.8% | Annexin V+/IP (250 nM, 48 h): 31.3% | percentage of propidium iodide positive and annexin V positive (250 nM, 48 h, quadrant D2): 17% | Annexin V+/IP (500 nM, 24 h): 27.1% | viability at 0.25 µM (Homo sapiens, A2780, 48 h, read-out: viable cells): 45%

C=CC1=C[C@@H]2[C@@H]3O[C@]4(CC[C@H](O4)[C@@H](C)C[C@@H](O)C3=O)C[C@H](O)C3=NCC[C@@]32CC1 [Portimine-A]
Annexin V+/IP (1 nM, 24 h, early apoptotic cells (annexin V positive, propidium iodide negative)): 3.4% | Annexin V+/IP (1 nM, 48 h): 1.7% | Annexin V+/IP (5 nM, 24 h): 6.4% | Annexin V+/IP (5 nM, 48 h): 18.4% | Annexin V+/IP (10 nM, 24 h): 13.1% | Annexin V+/IP (10 nM, 48 h): 24.1% | Annexin V+/IP (20 nM, 24 h): 13% | percentage of late-stage apoptotic cells and or necrotic cells (20 nM, 24 h): 4.3% | percentage of late-stage apoptotic cells and or necrotic cells (20 nM, 48 h): 15% | Annexin V+/IP (20 nM, 48 h, listed as Portimine): 39% and 39.3% | Annexin V+/IP (50 nM, 24 h): 22.8% | viable cells (50 nM, 48 h treatment, quadrant D3): 40%
